Literature values in US6068858A, “Methods of making nanocrystalline formulations of human immunodeficiency virus (HIV) protease inhibitors using cellulosic surface stabilizers” (Elan Pharma International Limited, priority 1999, dated 2000).
Like-named read-outs stand apart in the source and are kept apart here. One block for each molecule: values may come before it.

Assays:
HIV RT = details: background statement; for side effects: interfere with cellular enzymes

SMILES: O[C@H](CS)[C@H](O)CS (racemic) [ddT, dithiothreitol]
effectiveness in treating HIV infection (HIV RT): only modestly effective
side effects (HIV RT): severe side effects

SMILES: Cc1cn([C@H]2C[C@H](N=[N+]=[N-])[C@@H](CO)O2)c(=O)[nH]c1=O [AZT, azidothymidine]
side effects (HIV RT): severe side effects

SMILES: CSC[C@H](NC(=O)COc1cccc2cnccc12)C(=O)N[C@@H](Cc1ccccc1)[C@H](O)C(=O)N1CSC[C@H]1C(=O)NC(C)(C)C [KNI-272]
oral bioavailability (as reported in literature): low oral bioavailability

SMILES: N#Cc1ccc(S(=O)(=O)Nc2cccc(C(c3c(O)c4c(oc3=O)CCCCCC4)C3CC3)c2)cc1 (stereo not shown) [U-103,017]
oral bioavailability (as reported in literature): low oral bioavailability

SMILES: O=c1[nH]cnc2c1ncn2[C@H]1CC[C@@H](CO)O1 [ddI, didanosine]
effectiveness in treating HIV infection (HIV RT): only modestly effective
side effects (HIV RT): severe side effects

Now from value to molecule:

oral bioavailability (in vivo, po): low oral bioavailability
SMILES: CC(C)c1nc(CN(C)C(=O)N[C@H](C(=O)N[C@@H](Cc2ccccc2)C[C@H](O)[C@H](Cc2ccccc2)NC(=O)OCc2cncs2)C(C)C)cs1 [ABT-538]

oral bioavailability (in vivo, po): low oral bioavailability
SMILES: Cc1c(O)cccc1C(=O)N[C@@H](CSc1ccccc1)[C@H](O)CN1C[C@H]2CCCC[C@H]2C[C@H]1C(=O)NC(C)(C)C [AG1343]

oral bioavailability (in vivo, po): low oral bioavailability
SMILES: Nc1cccc(CN2C(=O)N(Cc3cccc(N)c3)[C@H](Cc3ccccc3)[C@H](O)[C@@H](O)[C@H]2Cc2ccccc2)c1 [DMP-450]

oral bioavailability (in vivo, po): low oral bioavailability
SMILES: CC(C)(C)NC(=O)[C@@H]1CN(Cc2cccnc2)CCN1C[C@@H](O)C[C@@H](Cc1ccccc1)C(=O)N[C@H]1c2ccccc2C[C@H]1O [MK-639]

oral bioavailability (in vivo, po): low oral bioavailability
SMILES: CC(C)CN(C[C@@H](O)[C@H](Cc1ccccc1)NC(=O)O[C@H]1CCOC1)S(=O)(=O)c1ccc(N)cc1 [VX-478]

oral bioavailability (in vivo, po): low oral bioavailability
SMILES: CC(C)(C)NC(=O)[C@@H]1C[C@@H]2CCCC[C@@H]2CN1C[C@@H](O)[C@H](Cc1ccccc1)NC(=O)[C@H](CC(N)=O)NC(=O)c1ccc2ccccc2n1 [saquinavir]
